# Earlier results as cited in US20130023590A1, “AQUEOUS COMPOSITIONS COMPRISING RESVERATROL AND METHODS FOR MAKING THEM” (priority 2011, published 2013).
# Like-named read-outs stand apart in the source and are kept apart here.
# Assays:
# [1] = for solubility in water: with heating
# yeast = conditions: in the absence of caloric restriction
# [2] = oral, humans
smiles,measurement,setting,value
"Oc1ccc(C=Cc2cc(O)cc(O)c2)cc1 [resveratrol, 3,4′,5-trihydroxystilbene]",solubility in organic solvents,"[1]; ethanol, dimethyl sulfoxide or dimethyl formamide",approximately 65 mg/ml
same,solubility in water,[1]; Sigma-Aldrich Product Information Sheet,3 mg/100 ml
same,solubility in water,[1]; same value restated in ppm,30 ppm
same,extension of replicative lifespan of yeast,yeast,70%
same,bioavailability,[2],very low
